Molecules are shown by their SMILES.

For one assay, the system named is B16V mouse melanoma cells. Kind of assay: Depigmenting effect on melanoma cell cultures (inhibition of pigmentation). It is filed as cell-based. The note with it: 96 h, read-out: IC 50 (concentration at which pigmentation is inhibited by 50%). The procedure:
B16V mouse melanoma cells are disseminated in a 96-well microtitre plate in a concentration of 5×10^3 cells/well. After cultivation for 24 h at 37° C. and 5% CO2 in RPMI medium, enriched with 10% foetal calf serum, various concentrations of the test substances and 0.3 mM tyrosine and 10 nM α-MSH (α-melanocyte stimulating hormone) are added and incubated for a further 96 h. The maximum concentration of the test substances used corresponds to 0.1 times the value of the IC20 value of the cytotoxicity assay. Standards are incubated with kojic acid in concentrations of 0.01 mM, 0.1 mM and 1 mM in addition to tyrosine and α-MSH. Only tyrosine and α-MSH are added to the controls. After incubation, sodium lauryl sulfate and sodium hydroxide solution (final concentrations: 1 mM and 1 M respectively) are added to the culture medium and the absorption (A) is measured after 3 h at 400 nm.
The inhibition of pigmentation in the presence of the test compounds or kojic acid was calculated using the following equation: Inhibition of pigmentation(%)=100−[(Atest compound/Acontrol)×100] wherein Atest compound=absorption of the wells with test substance and with cells Acontrol=absorption of the wells without test substance, but with cells
From the inhibition of pigmentation (%) in a series of dilutions of test compounds, the IC50 for each test compound is calculated. This is the concentration of a test compound at which pigmentation is inhibited by 50%.
For the compound `CC(C)[C@@H]1CC[C@@H](C)C[C@H]1OC(=O)NCc1ccc2c(c1)OCO2` [BIO1571, Benzo[1,3]dioxol-5-ylmethyl-carbamic acid (1R,2S,5R)-2-isopropyl-5-methyl-cyclohexyl ester], the IC50 came out at 5.5 µM.

Staying with this assay, now noted: B16V cells, 0.3 mM tyrosine and 10 nM α-MSH, 96 h incubation, absorption at 400 nm, read-out: IC 50 (concentration at which pigmentation is inhibited by 50%).
Consider `CCNC(=O)O[C@@H]1C[C@H](C)CC[C@H]1C(C)C` [BIO1151, Ethyl-carbamic acid (1R,2S,5R)-2-isopropyl-5-methyl-cyclohexyl ester], for which the IC50 was 40.9 µM.

On to `COCCCNC(=O)O[C@@H]1C[C@H](C)CC[C@H]1C(C)C` [BIO1155, (3-Methoxy-propyl)-carbamic acid (1R,2S,5R)-2-isopropyl-5-methyl-cyclohexyl ester], for which the IC50 worked out at 22.1 µM.

For `CC(C)CNC(=O)O[C@@H]1C[C@H](C)CC[C@H]1C(C)C` [BIO1159, Isobutyl-carbamic acid (1R,2S,5R)-2-isopropyl-5-methyl-cyclohexyl ester], the IC50 stood at 100 µM.

As to `CNC(=O)O[C@@H]1C[C@H](C)CC[C@H]1C(C)C` [BIO1185, Methyl-carbamic acid (1R,2S,5R)-2-isopropyl-5-methyl-cyclohexyl ester], the IC50 is 109 µM.

For the compound `CC(C)[C@@H]1CC[C@@H](C)C[C@H]1OC(=O)NC1CCCCC1` [BIO1266, Cyclohexyl-carbamic acid (1R,2S,5R)-2-isopropyl-5-methyl-cyclohexyl ester], the IC50 was 18.8 µM.

On to `CCCCNC(=O)O[C@@H]1C[C@H](C)CC[C@H]1C(C)C` [BIO1267, Butyl-carbamic acid (1R,2S,5R)-2-isopropyl-5-methyl-cyclohexyl ester], for which the IC50 turned out to be 498 µM.

On to `CC(C)OCCCNC(=O)O[C@@H]1C[C@H](C)CC[C@H]1C(C)C` [BIO1268, (3-Isopropoxy-propyl)-carbamic acid (1R,2S,5R)-2-isopropyl-5-methyl-cyclohexyl ester], for which the IC50 is 19.6 µM.

Take `CCCCCCNC(=O)O[C@@H]1C[C@H](C)CC[C@H]1C(C)C` [BIO1271, Hexyl-carbamic acid (1R,2S,5R)-2-isopropyl-5-methyl-cyclohexyl ester]: the IC50 was found to be 18.9 µM.

For the compound `CNC(=O)O[C@H]1C[C@@H](C)CC[C@@H]1C(C)C` [BIO1301, Methyl-carbamic acid (1S,2R,5S)-2-isopropyl-5-methyl-cyclohexyl ester], the IC50 is 63.9 µM.

On to `COCCNC(=O)O[C@@H]1C[C@H](C)CC[C@H]1C(C)C` [BIO1336, (2-Methoxy-ethyl)-carbamic acid (1R,2S,5R)-2-isopropyl-5-methyl-cyclohexyl ester], for which the IC50 was found to be 35.3 µM.

`COCCCNC(=O)O[C@H]1C[C@@H](C)CC[C@@H]1C(C)C` [BIO1339, (3-Methoxy-propyl)-carbamic acid (1S,2R,5S)-2-isopropyl-5-methyl-cyclohexyl ester]: the IC50 was found to be 53.2 µM.

As to `CCNC(=O)O[C@H]1C[C@@H](C)CC[C@@H]1C(C)C` [BIO1378, Ethyl-carbamic acid (1S,2R,5S)-2-isopropyl-5-methyl-cyclohexyl ester], the IC50 worked out at 29.3 µM.

As to `COCCCNC(=O)O[C@H]1C[C@H](C)CC[C@H]1C(C)C` [BIO1460, (3-Methoxy-propyl)-carbamic acid (1S,2S,5R)-2-isopropyl-5-methyl-cyclohexyl ester], the IC50 was determined as 7.3 µM.

Take `CCNC(=O)O[C@H]1C[C@H](C)CC[C@H]1C(C)C` [BIO1461, Ethyl-carbamic acid (1S,2S,5R)-2-isopropyl-5-methyl-cyclohexyl ester]: the IC50 was 28.7 µM.

For `CCN(CC)C(=O)O[C@@H]1C[C@H](C)CC[C@H]1C(C)C` [BIO1553, Diethyl-carbamic acid (1R,2S,5R)-2-isopropyl-5-methyl-cyclohexyl ester], the IC50 amounted to 10.7 µM.

Regarding `CC(C)[C@@H]1CC[C@@H](C)C[C@H]1OC(=O)Nc1ccccc1` [BIO1580, Phenyl-carbamic acid (1R,2S,5R)-2-isopropyl-5-methyl-cyclohexyl ester], the IC50 turned out to be 6.9 µM.

As to `CCOc1ccccc1NC(=O)O[C@@H]1C[C@H](C)CC[C@H]1C(C)C` [BIO1632, (2-Ethoxy-phenyl)-carbamic acid (1R,2S,5R)-2-isopropyl-5-methyl-cyclohexyl ester], the IC50 came out at 3.2 µM.

In the case of `CC(=O)c1ccccc1NC(=O)O[C@@H]1C[C@H](C)CC[C@H]1C(C)C` [BIO1633, (2-Acetyl-phenyl)-carbamic acid (1R,2S,5R)-2-isopropyl-5-methyl-cyclohexyl ester], the IC50 was determined as 25.4 µM.

`CC(C)[C@@H]1CC[C@@H](C)C[C@H]1OC(=O)NCCCCCCO` [BIO1662, (6-Hydroxy-hexyl)-carbamic acid (1R,2S,5R)-2-isopropyl-5-methyl-cyclohexyl ester]: the IC50 stood at 50.7 µM.

`CC(C)[C@@H]1CC[C@@H](C)C[C@H]1OC(=O)NCc1ccccc1` [BIO1695, Benzyl-carbamic acid (1R,2S,5R)-2-isopropyl-5-methyl-cyclohexyl ester]: the IC50 came to 7.7 µM.

With `CC(C)[C@@H]1CC[C@@H](C)C[C@H]1OC(=O)NCC1CCCCC1` [BIO1699, Cyclohexylmethyl-carbamic acid (1R,2S,5R)-2-isopropyl-5-methyl-cyclohexyl ester], the IC50 was determined as 1.4 µM.

Consider `CC(C)[C@@H]1CC[C@@H](C)C[C@H]1OC(=O)NCC1CCCO1` (stereo partly drawn) [BIO1702, (Tetrahydro-furan-2-ylmethyl)-carbamic acid (1R,2S,5R)-2-isopropyl-5-methyl-cyclohexyl ester], for which the IC50 was 14.8 µM.

Consider `OC[C@H]1O[C@@H](Oc2ccc(O)cc2)[C@H](O)[C@@H](O)[C@@H]1O` [beta-Arbutin, reference compound], for which the IC50 is 67 µM.

In the next assay the test system is Pigmented pig skin. Put plainly: Depigmenting effect on ex vivo skin (melanin granules, Fontana-Masson staining, image analysis). It is filed as cell-based. The note with it: 1 wt.% in O/W emulsion applied topically, 6 days, vs. emulsion without test compound. The procedure: Pigmented pig skin was excised from animals (slaughtered for meat production; the pig skin model included the subcutis fat layer as described in EP 1 939 27), cut into 4×4×3 mm pieces (length×width×height) and placed in culture at the air-liquid interface on a sterilized cotton pad soaked with 5 ml of customized DMEM (Dulbecco's Modified Eagle Medium). Assays were started 24 h after sample acclimatization at 37° C., 5% CO2. O/W emulsions (as described in more detail below) without (=control) and with the test compounds, respectively, were applied topically and incubated for 6 days. Histological sections were prepared and melanin granules stained by Fontana-Masson technique. The granules were quantified by image analysis.
The O/W emulsions used had the following composition:
Phases A and B are heated to 70° C. separately. Pemulen TR1 as well as Ultrez-21 are dispersed in phase B when heated to 70° C. Phase B/C is added to phase A by mixing with an Ultra Turrax, followed by emulsifying. Phase D is slowly added to phase A/B/C using a paddle mixer and a pH 5.5-6 is adjusted. The formulation is cooled down while mixing with a paddle mixer. Phase E is prepared by dissolving one or more compounds of formula (I) in Hydrolite-5. Subsequently, phase E is added to the mixture of phase A-D.
Consider `CCNC(=O)O[C@@H]1C[C@H](C)CC[C@H]1C(C)C` [BIO1151, Ethyl-carbamic acid (1R,2S,5R)-2-isopropyl-5-methyl-cyclohexyl ester], for which the “Melanin score vs. Control” value was −44%.

For `COCCCNC(=O)O[C@@H]1C[C@H](C)CC[C@H]1C(C)C` [BIO1155, (3-Methoxy-propyl)-carbamic acid (1R,2S,5R)-2-isopropyl-5-methyl-cyclohexyl ester], the “Melanin score vs. Control” value was −46%.

(Values after patent publication US9060949B2, “Menthyl carbamate compounds as skin and/or hair lightening actives” (SYMRISE AG, priority 2010, dated 2015).)
